Measured values reported in ChEMBL document CHEMBL3091307, “Structure-anti-MRSA activity relationship of macrocyclic bis(bibenzyl) derivatives” (2013).
In brackets after ≈: the same amount, converted by molar mass. Activity calls are given as the source filed them. The rule behind the calls is not given here.

Key:
Staphylococcus aureus [1] = test: Antibacterial activity against methicillin-resistant Staphylococcus aureus clinical isolate N315 by liquid microdilution method; format: functional
Staphylococcus aureus [2] = test: Bacteriostatic activity against methicillin-resistant Staphylococcus aureus at 4 times MIC by cell survival assay; format: functional, organism-based
Staphylococcus aureus [3] = test: Antibacterial activity against methicillin-resistant Staphylococcus aureus clinical isolate OM481 by liquid microdilution method; format: functional
Staphylococcus aureus [4] = test: Antibacterial activity against methicillin-resistant Staphylococcus aureus clinical isolate OM584 by liquid microdilution method; format: functional
Staphylococcus aureus [5] = test: Bactericidal activity against methicillin-resistant Staphylococcus aureus at 4 times MIC by cell survival assay; format: functional, organism-based
Staphylococcus aureus [6] = test: Antibacterial activity against 2-phenoxyphenol and trichlosan-resistant Staphylococcus aureus clinical isolate N315 by liquid microdilution method; format: functional
Staphylococcus aureus [7] = test: Antibacterial activity against methicillin-resistant Staphylococcus aureus at 4 times MIC by cell survival assay; format: functional, organism-based

SMILES	MIC (Staphylococcus aureus [1])	Activity (Staphylococcus aureus [2])	MIC (Staphylococcus aureus [3])	MIC (Staphylococcus aureus [4])	Activity (Staphylococcus aureus [5])	MIC (Staphylococcus aureus [6])	Activity (Staphylococcus aureus [7])
Oc1ccccc1Oc1ccccc1	8 µg/mL (≈ 43 µM)	Active	8 µg/mL (≈ 43 µM)	8 µg/mL (≈ 43 µM)	inactive		
Oc1ccc2c(c1)CCc1ccc(c(O)c1)-c1ccc(O)c(c1)CCc1ccc-2c(O)c1	32 µg/mL (≈ 75.4 µM)		32 µg/mL (≈ 75.4 µM)	32 µg/mL (≈ 75.4 µM)			
Oc1ccc2c(c1)CCc1ccc(cc1)Oc1cccc(c1)CCc1ccc-2c(O)c1	1 µg/mL (≈ 2.45 µM)		1 µg/mL (≈ 2.45 µM)	1 µg/mL (≈ 2.45 µM)		1 µg/mL (≈ 2.45 µM)	
Oc1ccc2cc1Oc1ccc(cc1)CCc1ccc(O)c(c1)Oc1ccc(cc1)CC2	> 100 µg/mL		> 100 µg/mL	> 100 µg/mL			
CC(=O)NC[C@H]1CN(c2ccc(N3CCOCC3)c(F)c2)C(=O)O1 [LINEZOLID]			1 µg/mL (≈ 2.96 µM)	1 µg/mL (≈ 2.96 µM)			
Oc1ccc2c(c1)CCc1ccc(O)c(c1)Oc1ccc(cc1)CCc1ccc-2c(O)c1	4 µg/mL (≈ 9.42 µM)		4 µg/mL (≈ 9.42 µM)	4 µg/mL (≈ 9.42 µM)			
Oc1ccc2c(c1)CCc1ccc(cc1)Oc1cc(ccc1F)CCc1ccc-2c(O)c1	1 µg/mL (≈ 2.34 µM)		1 µg/mL (≈ 2.34 µM)	2 µg/mL (≈ 4.69 µM)			
Oc1ccc2c(c1)CCc1ccc(cc1)Oc1cc(ccc1O)CCc1ccc-2c(O)c1 [RICCARDI C]	2 µg/mL (≈ 4.71 µM)		2 µg/mL (≈ 4.71 µM)	2 µg/mL (≈ 4.71 µM)		2 µg/mL (≈ 4.71 µM)	Active
Oc1ccc2c(c1)CCc1ccc(cc1O)Oc1cccc(c1)CCc1ccc-2c(O)c1	4 µg/mL (≈ 9.42 µM)		4 µg/mL (≈ 9.42 µM)	4 µg/mL (≈ 9.42 µM)			
Oc1ccc2c(c1)CCc1ccc(c(O)c1)Oc1cc(ccc1O)CCc1ccc-2c(O)c1	8 µg/mL (≈ 18.2 µM)		16 µg/mL (≈ 36.3 µM)	16 µg/mL (≈ 36.3 µM)			
Oc1ccc2c(c1)CCc1ccc(cc1O)Oc1cc(ccc1O)CCc1ccc-2c(O)c1	8 µg/mL (≈ 18.2 µM)		8 µg/mL (≈ 18.2 µM)	8 µg/mL (≈ 18.2 µM)			
Oc1ccc2c(c1)CCc1ccc(c(F)c1)Oc1cc(ccc1O)CCc1ccc-2c(O)c1	4 µg/mL (≈ 9.04 µM)		8 µg/mL (≈ 18.1 µM)	8 µg/mL (≈ 18.1 µM)			
Oc1ccc2cc1Oc1ccc(cc1)CCc1ccccc1-c1ccc(cc1O)CC2	1 µg/mL (≈ 2.45 µM)		1 µg/mL (≈ 2.45 µM)	1 µg/mL (≈ 2.45 µM)		1 µg/mL (≈ 2.45 µM)	
